In patent US7879858B2, “Substituted tetrahydropyrrolopyrazine compounds and the use thereof in pharmaceutical compositions” (Gruenenthal GmbH, priority 2006, dated 2011):

Columns and labels:
[1] = system: NA reuptake; test: Inhibition of NA (noradrenaline) uptake in rat hypothalamus synaptosomes; type: biochemical; details: synaptosomes from hypothalamus of male rat brains
Procedure: (§1) Biological Data Inhibition of NA and 5HT Uptake
(§2) In order to be able to carry out these in vitro studies, synaptosomes are freshly isolated from areas of the rat brain. In each case a so-called “P2” fraction prepared in accordance with the instructions of Gray and Whittaker (E. G. Gray and V. P. Whittaker (1962) J. Anat. 76, 79-88) is prepared. For the NA uptake, these vesicular particles are isolated from the hypothalamus of male rat brains. A detailed description of the method can be found in the literature (M. Ch. Frink, H.-H. Hennies, W. Englberger, M. Haurand and B. Wilffert (1996) Arzneim.-Forsch./Drug Res. 46 (III), 11, 1029-1036).

[2] = target: T1, Serotonin reuptake (Rattus norvegicus, UniProt P31652); test: Inhibition of 5HT (serotonin) uptake in rat brain synaptosomes; type: biochemical; details: 10 μmol; synaptosomes from rat brain
T1 construct: synaptosomes are freshly isolated from areas of the rat brain; from tissue; host or cells: rat brain synaptosomes (P2 fraction)
Procedure: as §1, §2

T1 sequence (P31652 whole entry): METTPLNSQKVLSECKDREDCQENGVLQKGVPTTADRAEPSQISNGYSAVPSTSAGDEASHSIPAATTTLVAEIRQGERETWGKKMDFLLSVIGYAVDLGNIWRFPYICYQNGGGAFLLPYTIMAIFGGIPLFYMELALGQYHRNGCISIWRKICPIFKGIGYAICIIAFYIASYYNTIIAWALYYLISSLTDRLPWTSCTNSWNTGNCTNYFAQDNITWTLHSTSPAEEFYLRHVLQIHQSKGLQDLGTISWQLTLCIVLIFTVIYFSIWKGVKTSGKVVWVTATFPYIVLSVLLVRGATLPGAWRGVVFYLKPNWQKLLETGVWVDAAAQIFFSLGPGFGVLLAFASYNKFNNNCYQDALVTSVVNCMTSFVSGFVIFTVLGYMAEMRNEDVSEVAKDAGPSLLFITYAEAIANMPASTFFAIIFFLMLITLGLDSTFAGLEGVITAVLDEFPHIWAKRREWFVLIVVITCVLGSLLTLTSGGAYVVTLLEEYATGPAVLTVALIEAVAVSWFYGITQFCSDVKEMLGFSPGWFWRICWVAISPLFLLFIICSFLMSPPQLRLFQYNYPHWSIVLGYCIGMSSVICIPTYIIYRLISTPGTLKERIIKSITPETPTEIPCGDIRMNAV

| inhibition at 10 µM [2] [%] | SMILES | NA reuptake % inhibition [10 μmol] [1] [%] |
| --- | --- | --- |
| 37 | O=C(c1ccc(F)cc1)N1CCn2cccc2C1c1cccs1 (stereo not shown) [Example 60, (4-fluorophenyl)(1-(thiophen-2-yl)-3,4-dihydropyrrolo[1,2-a]pyrazin-2(1H)-yl)methanone] | 11 |
| 64 | O=C(c1ccc2c(c1)OCO2)N1CCn2cccc2C1c1ccc(Cl)c(Cl)c1 (stereo not shown) [Example 61, benzo[1,3]dioxol-5-yl-[1-(3,4-dichloro-phenyl)-3,4-dihydro-1H-pyrrolo[1,2-a]pyrazin-2-yl]-methanone] | 68 |
| 53 | O=C(c1ccccc1F)N1CCn2cccc2C1c1cccc(Cl)c1 (stereo not shown) [Example 44, [1-(3-chloro-phenyl)-3,4-dihydro-1H-pyrrolo[1,2-a]pyrazin-2-yl]-(2-fluoro-phenyl)-methanone] | 41 |
| 48 | CC(C)CC(=O)N1CCn2cccc2C1c1ccc(Cl)c(Cl)c1 (stereo not shown) [Example 64, 1-(1-(3,4-dichlorophenyl)-3,4-dihydropyrrolo[1,2-a]pyrazin-2(1H)-yl)-3-methylbutan-1-one] | 30 |
| 31 | O=C(C1CC1)N1CCn2cccc2C1c1cccs1 (stereo not shown) [Example 59, cyclopropyl(1-(thiophen-2-yl)-3,4-dihydropyrrolo[1,2-a]pyrazin-2(1H)-yl)methanone] | 10 |

Second part, the compound before the results:

| SMILES | inhibition at 10 µM [2] [%] | NA reuptake % inhibition [10 μmol] [1] [%] |
| --- | --- | --- |
| Cc1ccccc1C1c2cccn2CCN1C(=O)C1CCCC1 (stereo not shown) [Example 10, cyclopentyl-(1-o-tolyl-3,4-dihydro-1H-pyrrolo[1,2-a]pyrazin-2-yl)-methanone] | 50 | 30 |
| Cc1cccc(C2c3cccn3CCN2C(=O)c2ccc(F)cc2)c1 (stereo not shown) [Example 13, (4-fluoro-phenyl)-(1-m-tolyl-3,4-dihydro-1H-pyrrolo[1,2-a]pyrazin-2-yl)-methanone] | 55 | 41 |
| COc1ccccc1C1c2cccn2CCN1C(=O)C1CCCC1 (stereo not shown) [Example 2, cyclopentyl-[1-(2-methoxy-phenyl)-3,4-dihydro-1H-pyrrolo[1,2-a]pyrazin-2-yl]-methanone] | 79 | 36 |
| Cc1cccc(C2c3cccn3CCN2C(=O)c2cccc(F)c2)c1 (stereo not shown) [Example 16, (3-fluoro-phenyl)-(1-m-tolyl-3,4-dihydro-1H-pyrrolo[1,2-a]pyrazin-2-yl)-methanone] | 54 | 49 |
| Cc1ccccc1C(=O)N1CCn2cccc2C1c1ccccc1F (stereo not shown) [Example 8, (1-(2-fluorophenyl)-3,4-dihydropyrrolo[1,2-a]pyrazin-2(1H)-yl)(o-tolyl)methanone] | 37 | 18 |
| COCC(=O)N1CCn2cccc2C1c1ccccc1 (stereo not shown) [Example 25, 2-methoxy-1-(1-phenyl-3,4-dihydropyrrolo[1,2-a]pyrazin-2(1H)-yl)ethanone] | 33 | 12 |
| O=C(c1cccc(F)c1)N1CCn2cccc2C1c1cccc(Cl)c1 (stereo not shown) [Example 43, [1-(3-chloro-phenyl)-3,4-dihydro-1H-pyrrolo[1,2-a]pyrazin-2-yl]-(3-fluoro-phenyl)-methanone] | 58 | 66 |
| O=C(c1ccc2c(c1)OCO2)N1CCn2cccc2C1c1ccccc1F (stereo not shown) [Example 9, benzo[d][1,3]dioxol-5-yl(1-(2-fluorophenyl)-3,4-dihydropyrrolo[1,2-a]pyrazin-2(1H)-yl)methanone] | 30 | 27 |
| Cc1cccc(C2c3cccn3CCN2C(=O)c2ccc3c(c2)OCO3)c1 (stereo not shown) [Example 18, benzo[1,3]dioxol-5-yl-(1-m-tolyl-3,4-dihydro-1H-pyrrolo[1,2-a]pyrazin-2-yl)-methanone] | 55 | 40 |
